# The supplement of paper PMC10307832
# What was measured:
# Experiment in all cases: relative viability (nuclei count vs DMSO), 5 days (fraction); higher = more cells survive
# IPA-3 + Luminespib = compound: C1=CC=C2C(=C1)C=CC(=C2SSC3=C(C=CC4=CC=CC=C43)O)O [IPA-3] + CCNC(=O)c1noc(-c2cc(C(C)C)c(O)cc2O)c1-c1ccc(CN2CCOCC2)cc1 [Luminespib] (partner 0.01 µM)
# Summary of the method: (§1)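 Relative viability equals treated-well nuclei counts divided by vehicle-well nuclei counts. Counts came from 4× images of lung cancer cell lines grown in 1536-well plates for 5 days after pin-tool dosing on the day after seeding. Dosing used one drug alone or a fixed anchor-drug dose plus five library-drug doses (not always all listed) in √10 steps, and values are medians of duplicate plates.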
# IPA-3 + Lapatinib = compound: C1=CC=C2C(=C1)C=CC(=C2SSC3=C(C=CC4=CC=CC=C43)O)O [IPA-3] + CS(=O)(=O)CCNCc1ccc(-c2ccc3ncnc(Nc4ccc(OCc5cccc(F)c5)c(Cl)c4)c3c2)o1 [Lapatinib] (partner 2 µM)
# Summary of the method: as §1
# Doramapimod + Navitoclax = compound: Cc1ccc(-n2nc(C(C)(C)C)cc2NC(=O)Nc2ccc(OCCN3CCOCC3)c3ccccc23)cc1 [Doramapimod] + CC1(C)CCC(c2ccc(Cl)cc2)=C(CN2CCN(c3ccc(C(=O)NS(=O)(=O)c4ccc(N[C@H](CCN5CCOCC5)CSc5ccccc5)c(S(=O)(=O)C(F)(F)F)c4)cc3)CC2)C1 [Navitoclax] (partner 0.5 µM)
# Summary of the method: as §1
# RAF265 + OSI-027 = compound: Cn1c(Nc2ccc(C(F)(F)F)cc2)nc2cc(Oc3ccnc(-c4ncc(C(F)(F)F)[nH]4)c3)ccc21 [RAF265] + COc1cccc2cc(-c3nc([C@H]4CC[C@H](C(=O)O)CC4)n4ncnc(N)c34)[nH]c12 [OSI-027] (partner 0.5 µM)
# Summary of the method: as §1
Cell Line,relative viability (IPA-3 + Luminespib; first compound 0.2 µM),relative viability (IPA-3 + Luminespib; first compound 0.6325 µM),relative viability (IPA-3 + Luminespib; first compound 2 µM),relative viability (IPA-3 + Luminespib; first compound 6.325 µM),relative viability (IPA-3 + Luminespib; first compound 20 µM),relative viability (IPA-3 + Lapatinib; first compound 0.2 µM),relative viability (IPA-3 + Lapatinib; first compound 0.6325 µM),relative viability (IPA-3 + Lapatinib; first compound 2 µM),relative viability (IPA-3 + Lapatinib; first compound 6.325 µM),relative viability (IPA-3 + Lapatinib; first compound 20 µM),relative viability (Doramapimod + Navitoclax; first compound 0.02 µM),relative viability (Doramapimod + Navitoclax; first compound 0.06325 µM),relative viability (Doramapimod + Navitoclax; first compound 0.2 µM),relative viability (Doramapimod + Navitoclax; first compound 0.6325 µM),relative viability (Doramapimod + Navitoclax; first compound 2 µM),relative viability (RAF265 + OSI-027; first compound 0.01 µM),relative viability (RAF265 + OSI-027; first compound 0.03162 µM),relative viability (RAF265 + OSI-027; first compound 0.1 µM),relative viability (RAF265 + OSI-027; first compound 0.3162 µM),relative viability (RAF265 + OSI-027; first compound 1 µM)
NCI-H727,0.318,1.29,0.755,0.33,0.24,1.15,0.832,0.915,0.952,0.796,0.467,0.337,0.501,0.481,0.382,0.7,0.8,0.487,0.438,0.347
HARA,0.991,0.767,0.0423,0.889,1.08,0.764,0.659,0.57,0.793,0.74,1.1,1.13,1.12,1.11,1.07,0.491,0.417,0.423,0.187,0.101
NCI-H2228,0.155,0.181,0.183,0.175,0.145,1.87,1.39,1.24,0.825,1.18,0.669,0.786,1.05,0.913,0.605,0.499,0.476,0.344,0.184,0.121
LCLC-97TM1,0.99,0.733,0.608,0.855,0.783,1.14,1.03,1.13,0.938,0.937,0.372,0.434,0.525,0.51,0.371,0.516,0.328,0.215,0.416,0.0767
LC-2-ad,1.21,1.06,1.07,1.04,1.05,1.04,1,1.04,0.961,1.09,0.399,0.342,0.377,0.422,0.357,0.969,0.798,0.902,0.442,0.378
SK-LU-1,0.207,0.17,0.225,0.161,0.228,1.18,0.744,1.01,0.756,0.692,0.544,1,0.821,1.01,0.7,0.349,0.254,0.224,0.232,0.193
EKVX,0.826,0.781,0.867,0.938,1.01,0.198,0.201,0.204,0.225,0.217,0.677,0.915,0.936,0.895,0.934,0.689,0.666,0.744,0.483,0.534
HCC-827,0.881,0.588,0.627,0.67,0.745,0.216,0.191,0.161,0.165,0.189,1.01,0.959,0.984,1,0.829,0.754,0.783,0.708,,0.649
NCI-H650,0.964,0.851,0.733,0.805,1.06,1.22,0.955,0.802,0.857,1.3,,,,,,0.52,0.468,0.491,0.411,0.279
CAL-12T,0.724,0.287,0.449,0.375,0.488,0.919,0.651,0.761,0.643,0.756,1.14,1.14,1.14,1.48,1.03,0.633,0.45,0.313,0.281,0.327
NCI-H1648,,,,,,,,,,,,,,,,0.266,0.298,0.277,0.3,0.246
NCI-H522,1.34,1.05,1.25,1.05,1.07,,,,,,,,,,,0.79,0.741,0.655,0.541,0.628
IA-LM,,,,,,1.07,0.8,0.755,0.578,0.725,0.676,0.567,0.804,0.807,0.577,,,,,
EPLC-272H,0.469,0.473,0.352,0.416,0.553,1.01,1.01,0.915,0.881,1.04,1.14,0.943,1.12,1.23,0.978,0.251,0.288,0.237,0.218,0.184
A-427,1.02,0.855,0.999,0.803,1.02,1.17,0.997,0.981,1.09,1.2,1.02,1.01,1.02,,1.08,0.4,0.334,0.312,0.18,0.129
NCI-H647,0.192,0.148,0.176,0.142,0.102,1.71,1.02,0.876,0.335,0.0724,1.09,1.13,1.12,1.09,1.12,0.598,0.618,0.417,0.246,0.213
NCI-H1975,0.236,0.189,0.213,0.19,0.365,1.18,0.888,0.964,0.889,0.927,1.2,1.19,0.991,1.16,0.981,0.682,0.601,0.348,0.261,0.178
NCI-H358,0.535,0.313,0.265,0.385,0.255,0.532,0.47,0.445,0.51,0.413,,,,,,0.864,0.617,0.305,0.194,0.18
PC-3 [JPC-3],0.742,0.666,0.719,0.641,0.801,0.494,0.467,0.422,0.504,0.457,0.923,0.767,0.737,0.869,0.723,0.84,0.655,0.746,,0.567
NCI-H1792,0.475,0.529,0.418,0.38,0.615,1.07,0.888,0.94,0.894,1.01,0.601,0.809,0.672,0.617,0.577,0.681,0.691,0.72,0.444,0.25

Cell Line,relative viability (IPA-3 + Luminespib; first compound 0.2 µM),relative viability (IPA-3 + Luminespib; first compound 0.6325 µM),relative viability (IPA-3 + Luminespib; first compound 2 µM),relative viability (IPA-3 + Luminespib; first compound 6.325 µM),relative viability (IPA-3 + Luminespib; first compound 20 µM),relative viability (IPA-3 + Lapatinib; first compound 0.2 µM),relative viability (IPA-3 + Lapatinib; first compound 0.6325 µM),relative viability (IPA-3 + Lapatinib; first compound 2 µM),relative viability (IPA-3 + Lapatinib; first compound 6.325 µM),relative viability (IPA-3 + Lapatinib; first compound 20 µM),relative viability (Doramapimod + Navitoclax; first compound 0.02 µM),relative viability (Doramapimod + Navitoclax; first compound 0.06325 µM),relative viability (Doramapimod + Navitoclax; first compound 0.2 µM),relative viability (Doramapimod + Navitoclax; first compound 0.6325 µM),relative viability (Doramapimod + Navitoclax; first compound 2 µM),relative viability (RAF265 + OSI-027; first compound 0.01 µM),relative viability (RAF265 + OSI-027; first compound 0.03162 µM),relative viability (RAF265 + OSI-027; first compound 0.1 µM),relative viability (RAF265 + OSI-027; first compound 0.3162 µM),relative viability (RAF265 + OSI-027; first compound 1 µM)
NCI-H596,1.17,0.955,1.04,0.637,0.662,1.09,1.09,1.13,1.03,1.35,0.927,0.809,0.933,1.01,0.876,0.982,0.751,0.784,0.563,0.554
RERF-LC-KJ,1.46,1.27,1.29,1.39,1.14,1,0.828,0.764,0.801,0.897,1.09,1.35,0.858,0.853,1.01,0.548,0.52,0.423,0.349,0.381
NCI-H322M,0.964,0.722,1.08,1.02,1.13,0.566,0.66,0.596,0.566,0.613,1.12,1.16,1.16,1.33,1.2,0.589,0.519,0.41,0.358,0.186
COR-L 105,0.866,0.858,0.771,0.826,0.97,0.384,0.374,0.359,0.325,0.304,0.685,0.713,0.811,0.81,0.889,0.798,0.676,0.608,0.315,0.43
EBC-1,,,,,,0.191,0.223,0.199,0.217,0.25,0.428,0.335,0.332,0.417,0.372,,,,,
ABC-1,0.723,,0.573,,0.29,1.1,1.06,1.23,1.37,1.29,,,,,,0.39,0.48,0.365,0.408,0.31
HCC-366,,,,,,1.08,1.05,1.09,1.09,1.18,1.05,1,1.03,0.978,0.901,1.04,0.939,0.834,0.165,0.107
NCI-H1563,0.514,0.526,0.532,0.512,0.437,0.968,0.657,0.871,1.01,0.907,,,,,,0.769,0.772,0.738,0.706,0.739
SW 900,0.211,0.184,0.165,0.181,0.212,,,,,,,,,,,0.569,0.661,0.464,0.378,0.391
NCI-H1299,,,,,,0.966,0.936,0.944,0.894,0.91,1.1,1.13,1.12,1.05,1.09,,,,,
A549,,,,,,1.07,0.897,1.01,1,0.981,1.18,1.22,1.39,1.34,1.1,,,,,
NCI-H1623,0.574,0.481,0.675,0.516,0.556,,,,,,,,,,,0.462,0.43,0.467,0.291,0.364
NCI-H1703,,,,,,1.17,1.05,0.861,0.961,1.35,0.957,0.944,1.16,1.54,0.896,,,,,
HCC-78,,,,,,1.01,0.7,0.924,0.763,1.02,0.834,0.81,0.81,0.874,0.777,0.35,0.424,0.396,0.346,0.341
NCI-H661,0.911,0.874,0.919,0.866,0.921,0.445,0.472,0.584,0.447,0.537,,,,,,0.742,0.394,0.44,0.333,0.291
NCI-H2342,0.701,0.677,0.747,0.802,0.765,,,,,,,,,,,0.598,0.722,0.598,0.525,0.514
Calu-6,,,,,,1.15,0.958,1.05,1.01,1.05,0.885,0.894,0.899,0.92,0.846,,,,,
ChaGo-K-1,0.734,0.539,0.58,0.632,0.58,,,,,,1.07,1.25,1.24,,1.01,0.563,0.628,0.5,0.44,0.38
LCLC-103H,1.09,1,0.916,0.929,0.926,,,,,,,,,,,0.466,0.439,0.464,0.443,0.308
NCI-H441,0.401,0.29,0.407,0.324,0.422,,,,,,0.857,,0.558,0.818,0.353,0.612,0.591,0.454,0.346,0.351
